Measurements from patent US20260356817A1, “AMINOPYRIMIDINE AND AMINOTRIAZINE DERIVATIVES AS MYC PROTEIN MODULATORS” (Sanford Burnham Prebys Medical Discovery Institute, priority 2022, published 2026).
Where two headings read alike, the source gives them in different places.

Test system: Myc
Test: Myc inhibition assay: Myc expression per cell by anti-Myc immunofluorescence, high-content imaging
Format: cell-based, human (patient-derived medulloblastoma xenograft cells)
Settings: medulloblastoma PDX cells, 4 h
From the text: To identify Myc inhibitors, cells isolated from patient-derived orthotopic xenografts (PDXs) from patients with Myc-driven medulloblastoma were used. Specifically, PDX cells were propagated by transplantation directly into the cerebellum of immunodeficient (NSG) mice and were never passaged in vitro in order to maintain properties of the tumor from which they were derived. Tumor tissues were isolated from tumor-bearing animals, dissociated into a single-cell suspension, resuspended in serum-free media, and immediately plated in 384 well plates. After overnight recovery, compounds were added to each well, and cells were incubated for 4 hours before being fixed and stained with anti-Myc antibodies and with DAPI to label nuclei. Cells were then analyzed using high-content imaging to determine the levels of Myc expression per cell and IC50 values of the compounds.

[1] = Table 1, read-out: IC50 (Myc inhibition)
[2] = Table 2, read-out: MYC Inhibition IC50

Structure (SMILES) | IC50 [1] [nM] | IC50 [2] [nM]
Clc1cccc(Nc2nccc(-c3ccc4[nH]cnc4c3)n2)c1 [Compound 69, 4-(1H-benzo[d]imidazol-5-yl)-N-(3-chlorophenyl)pyrimidin-2-amine] | < 200 | < 200
CC(C)(C)c1cccc(Nc2nccc(-c3ccc4[nH]cnc4c3)n2)c1 [Compound 87, 4-(1H-benzo[d]imidazol-5-yl)-N-(3-(tert-butyl)phenyl)pyrimidin-2-amine] | 200 to 1000 | 200 to 1000
Fc1cccc(Nc2nccc(-c3ccc4[nH]cnc4c3)n2)c1 [Compound 199, 4-(1H-benzo[d]imidazol-5-yl)-N-(3-fluorophenyl)pyrimidin-2-amine] | < 200 | < 200
Cc1cc(Nc2nccc(-c3ccc4[nH]cnc4c3)n2)ccc1F [Compound 48, 4-(1H-benzo[d]imidazol-5-yl)-N-(4-fluoro-3-methylphenyl)pyrimidin-2-amine] | 200 to 1000 | 200 to 1000
COc1cc(-c2ncnc(Nc3ccccc3)n2)ccn1 [Compound 240, 4-(2-methoxypyridin-4-yl)-N-phenyl-1,3,5-triazin-2-amine] | 1000 to 10000 | 1000 to 10000
Oc1cc(-c2ccnc(Nc3ccncn3)n2)ccn1 [Compound 175, 4-(2-(pyrimidin-4-ylamino)pyrimidin-4-yl)pyridin-2-ol] | 10000 to 100000 | 10000 to 100000
Oc1cc(Nc2ccnc(Nc3cccc(F)c3)n2)ccn1 [Compound 118, 4-((2-((3-fluorophenyl)amino)pyrimidin-4-yl)amino)pyridin-2-ol] | 10000 to 100000 | 10000 to 100000
COc1ccc(-c2ccnc(Nc3cccc(F)c3)n2)nc1 [Compound 174, N-(3-fluorophenyl)-4-(5-methoxypyridin-2-yl)pyrimidin-2-amine] | 10000 to 100000 | 10000 to 100000
COc1cncc(-c2ccnc(Nc3cccc(C(F)(F)F)c3)n2)c1 [Compound 204, 4-(5-methoxypyridin-3-yl)-N-(3-(trifluoromethyl)phenyl)pyrimidin-2-amine] | 200 to 1000 | 200 to 1000
c1cc(-c2ccc3[nH]cnc3c2)nc(NC2CCOCC2)n1 [Compound 101, 4-(1H-benzo[d]imidazol-5-yl)-N-(tetrahydro-2H-pyran-4-yl)pyrimidin-2-amine] | 1000 to 10000 | 1000 to 10000
CCS(=O)(=O)c1cccc(Nc2nccc(-c3ccc4[nH]cnc4c3)n2)c1 [Compound 5, 4-(1H-benzo[d]imidazol-5-yl)-N-(3-(ethylsulfonyl)phenyl)pyrimidin-2-amine] | < 200 | < 200
Oc1cc(-c2ccnc(Nc3ccccn3)n2)ccn1 [Compound 186, 4-(2-(pyridin-2-ylamino)pyrimidin-4-yl)pyridin-2-ol] | 10000 to 100000 | 10000 to 100000
c1cc(-c2ccc3[nH]cnc3c2)nc(NC2CCCCC2)n1 [Compound 96, 4-(1H-benzo[d]imidazol-5-yl)-N-cyclohexylpyrimidin-2-amine] | 1000 to 10000 | 1000 to 10000
FC(F)(F)c1cccc(Nc2nccc(-c3ccc4cn[nH]c4c3)n2)c1 [Compound 164, 4-(1H-indazol-6-yl)-N-(3-(trifluoromethyl)phenyl)pyrimidin-2-amine] | 1000 to 10000 | 1000 to 10000
Oc1cccc(Nc2nccc(-c3ccc4[nH]cnc4c3)n2)c1 [Compound 90, 3-((4-(1H-benzo[d]imidazol-5-yl)pyrimidin-2-yl)amino)phenol] | < 200 | < 200
Fc1cccc(Nc2nccc(-c3cnc4[nH]ccc4c3)n2)c1 [Compound 169, N-(3-fluorophenyl)-4-(1H-pyrrolo[2,3-b]pyridin-5-yl)pyrimidin-2-amine] | 10000 to 100000 | 10000 to 100000
Oc1cc(-c2ccnc(Oc3ccccc3)n2)ccn1 [Compound 232, 4-(2-phenoxypyrimidin-4-yl)pyridin-2-ol] | 10000 to 100000 | 10000 to 100000
NCCOc1cccc(Nc2nccc(-c3ccnc(O)c3)n2)c1 [Compound 120, 4-(2-((3-(2-aminoethoxy)phenyl)amino)pyrimidin-4-yl)pyridin-2-ol] | 1000 to 10000 | 1000 to 10000
Fc1cccc(Nc2nccc(-c3ccc4ocnc4c3)n2)c1 [Compound 271, 4-(benzo[d]oxazol-5-yl)-N-(3-fluorophenyl)pyrimidin-2-amine] | 1000 to 10000 | 1000 to 10000
COc1cccc(-c2ccnc(Nc3ccccc3OC)n2)c1 [Compound 248, N-(2-methoxyphenyl)-4-(3-methoxyphenyl)pyrimidin-2-amine] | 10000 to 100000 | 10000 to 100000
COc1cccc(-c2ccnc(Nc3ccccc3)n2)n1 [Compound 236, 4-(6-methoxypyridin-2-yl)-N-phenylpyrimidin-2-amine] | 10000 to 100000 | 10000 to 100000

Structure (SMILES) | IC50 [1] [nM] | IC50 [2] [nM]
Oc1ncc(-c2ccnc(Nc3cccc(C(F)(F)F)c3)n2)s1 [Compound 144, 5-(2-((3-(trifluoromethyl)phenyl)amino)pyrimidin-4-yl)thiazol-2-ol] | 200 to 1000 | 200 to 1000
Oc1cc(-c2ccnc(Nc3cccc(C(F)(F)F)c3)n2)ncn1 [Compound 131, 2′-((3-(trifluoromethyl)phenyl)amino)-[4,4′-bipyrimidin]-6-ol] | 1000 to 10000 | 1000 to 10000
CC(=O)Nc1cccc(Nc2nccc(-c3ccc4[nH]cnc4c3)n2)c1 [Compound 2, N-(3-((4-(1H-benzo[d]imidazol-5-yl)pyrimidin-2-yl)amino)phenyl)acetamide] | 200 to 1000 | 200 to 1000
Fc1cccc(Nc2nccc(-c3ccc4[nH]ccc4c3)n2)c1 [Compound 202, N-(3-fluorophenyl)-4-(1H-indol-5-yl)pyrimidin-2-amine] | 10000 to 100000 | 10000 to 100000
O=C(Nc1ccccc1)c1cccc(Nc2nccc(-c3ccc4[nH]cnc4c3)n2)c1 [Compound 263, 3-((4-(1H-benzo[d]imidazol-5-yl)pyrimidin-2-yl)amino)-N-phenylbenzamide] | < 200 | < 200
Cc1ccccc1Nc1nccc(-c2ccc3[nH]cnc3c2)n1 [Compound 51, 4-(1H-benzo[d]imidazol-5-yl)-N-(o-tolyl)pyrimidin-2-amine] | 1000 to 10000 | 1000 to 10000
c1cc(-c2ccc3[nH]cnc3c2)nc(Nc2ccsc2)n1 [Compound 68, 4-(1H-benzo[d]imidazol-5-yl)-N-(thiophen-3-yl)pyrimidin-2-amine] | 200 to 1000 | 200 to 1000
FC(F)(F)c1cccc(Nc2nccc(-c3ccc4nccn4c3)n2)c1 [Compound 127, 4-(Imidazo[1,2-a]pyridin-6-yl)-N-(3-(trifluoromethyl)phenyl)pyrimidin-2-amine] | 200 to 1000 | 200 to 1000
Cc1ccccc1-c1cccc(Nc2nccc(-c3ccc4[nH]cnc4c3)n2)c1 [Compound 33, 4-(1H-benzo[d]imidazol-5-yl)-N-(2′-methyl-[1,1′-biphenyl]-3-yl)pyrimidin-2-amine] | 200 to 1000 | 200 to 1000
COc1cc(Nc2ccnc(Nc3cccc(F)c3)n2)ccn1 [Compound 122, N^2-(3-fluorophenyl)-N^4-(2-methoxypyridin-4-yl)pyrimidine-2,4-diamine] | 1000 to 10000 | 1000 to 10000
Oc1cc(-c2ccnc(Nc3cncc(C(F)(F)F)c3)n2)ccn1 [Compound 154, 4-(2-((5-(trifluoromethyl)pyridin-3-yl)amino)pyrimidin-4-yl)pyridin-2-ol] | 200 to 1000 | 200 to 1000
Oc1cc(-c2ccnc(Nc3cc(F)cc(F)c3)n2)ccn1 [Compound 147, 4-(2-((3,5-difluorophenyl)amino)pyrimidin-4-yl)pyridin-2-ol] | 1000 to 10000 | 1000 to 10000
FC(F)(F)c1cccc(Nc2cc(-c3ccc4nc[nH]c4c3)ccn2)n1 [Compound 281, N-(4-(1H-benzo[d]imidazol-6-yl)pyridin-2-yl)-6-(trifluoromethyl)pyridin-2-amine] | < 200 | < 200
COc1cc(-c2ccnc(Nc3ccc(F)c(F)c3)n2)ccn1 [Compound 210, N-(3,4-difluorophenyl)-4-(2-methoxypyridin-4-yl)pyrimidin-2-amine] | 1000 to 10000 | 1000 to 10000
FC(F)(F)c1cccc(Nc2cc(-c3ccc4[nH]cnc4c3)ccn2)c1 [Compound 52, 4-(1H-benzo[d]imidazol-5-yl)-N-(3-(trifluoromethyl)phenyl)pyridin-2-amine] | 1000 to 10000 | 1000 to 10000
Cc1ccc(Nc2nccc(-c3ccc4[nH]cnc4c3)n2)cc1C [Compound 60, 4-(1H-benzo[d]imidazol-5-yl)-N-(3,4-dimethylphenyl)pyrimidin-2-amine] | 200 to 1000 | 200 to 1000
c1ccc(-c2cccc(Nc3nccc(-c4ccc5[nH]cnc5c4)n3)c2)nc1 [Compound 44, 4-(1H-benzo[d]imidazol-5-yl)-N-(3-(pyridin-2-yl)phenyl)pyrimidin-2-amine] | < 200 | < 200
Cc1cc(C)cc(Nc2nccc(-c3ccc4[nH]cnc4c3)n2)c1 [Compound 16, 4-(1H-benzo[d]imidazol-5-yl)-N-(3,5-dimethylphenyl)pyrimidin-2-amine] | < 200 | < 200
Oc1cc(-c2ccnc(Nc3cncnc3)n2)ccn1 [Compound 178, 4-(2-(pyrimidin-5-ylamino)pyrimidin-4-yl)pyridin-2-ol] | 10000 to 100000 | 10000 to 100000
c1cc(-c2ccc3[nH]cnc3c2)nc(Nc2ccc3cn[nH]c3c2)n1 [Compound 268, N-(4-(1H-benzo[d]imidazol-5-yl)pyrimidin-2-yl)-1H-indazol-6-amine] | 200 to 1000 | 200 to 1000
COc1cc(-c2ccnc(Nc3ccnc(C(F)(F)F)c3)n2)ccn1 [Compound 157, 4-(2-methoxypyridin-4-yl)-N-(2-(trifluoromethyl)pyridin-4-yl)pyrimidin-2-amine] | 10000 to 100000 | 10000 to 100000
